Assay results reported in the NIST ThermoML archive (doi:10.1016/j.jct.2011.01.008).

Experiments:
[1] = Liquid; for mass density: 96 kPa, Vibrating tube method; for vapor or sublimation pressure: Index of refraction calibration data
[2] = refractive index (Na D-line) (dimensionless); xn = mol fraction of the nth substance listed; conditions: 298.15 K; 96 kPa; Liquid; Standard Abbe refractometry; x2 = 0
[3] = xn = mol fraction of the nth substance listed; conditions: 96 kPa, Liquid, Vibrating tube method, x2 = 0

CCOS(=O)(=O)[O-].CCn1cc[n+](C)c1 [1-ethyl-3-methylimidazolium ethyl sulfate]
[1]
Conditions	mass density [kg/m3]
288.16 K	1243.72
293.16 K	1239.95
298.14 K	1236.86
298.15 K	1236.86
303.14 K	1233.58
308.15 K	1229.9
313.15 K	1226.73
318.16 K	1223.17
323.15 K	1219.99

CCCCC=O [pentanal]
[1]
Conditions	mass density [kg/m3]	vapor or sublimation pressure [kPa]
288.15 K	814.15	–
293.14 K	809.45	–
298.14 K	804.73	–
298.15 K	804.73	–
303.15 K	799.97	–
308.15 K	795.17	–
313.14 K	790.33	–
318.14 K	785.46	–
323.14 K	780.55	–
376.2 K	–	101.3

CCOS(=O)(=O)[O-].CCn1cc[n+](C)c1 [1-ethyl-3-methylimidazolium ethyl sulfate] + CCC=O
Conditions	refractive index
[2]	1.4817

[3]
Conditions	mass density [kg/m3]
288.16 K	1243.72
293.16 K	1239.95
298.14 K	1236.86
303.14 K	1233.58
308.15 K	1229.9
313.15 K	1226.73

CCOS(=O)(=O)[O-].CCn1cc[n+](C)c1 [1-ethyl-3-methylimidazolium ethyl sulfate] + CCCCC=O
Conditions	refractive index
[2]	1.4817

[3]
Conditions	mass density [kg/m3]
288.16 K	1243.72
293.16 K	1239.95
298.14 K	1236.86
303.14 K	1233.58
308.15 K	1229.9
313.15 K	1226.73
318.16 K	1223.17
323.15 K	1219.99

CCC=O [propanal]
[1]
Conditions	mass density [kg/m3]	vapor or sublimation pressure [kPa]
288.14 K	807.26	–
293.15 K	801.06	–
298.15 K	794.85	–
303.15 K	788.72	–
308.16 K	782.55	–
313.15 K	776.53	–
321.2 K	–	101.3
